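These data come from cells grown in 96-well plates and exposed to compound for 48 hours at five concentrations. TGI: total growth inhibition.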
Tests used:
Experiment in all cases: NCI tumour cell line growth inhibition, 48 h
UO-31 renal = test system: UO-31 renal
HS 578T breast = test system: HS 578T breast
SNB-19 CNS = test system: SNB-19 CNS
K-562 leukemia = test system: K-562 leukemia
786-0 renal = test system: 786-0 renal
BT-549 breast = test system: BT-549 breast
ACHN renal = test system: ACHN renal
MCF7 breast = test system: MCF7 breast
UACC-257 melanoma = test system: UACC-257 melanoma
TK-10 renal = test system: TK-10 renal
IGROV1 ovarian = test system: IGROV1 ovarian
RXF 393 renal = test system: RXF 393 renal
T-47D breast = test system: T-47D breast
SK-MEL-2 melanoma = test system: SK-MEL-2 melanoma
OVCAR-3 ovarian = test system: OVCAR-3 ovarian
U251 CNS = test system: U251 CNS
MALME-3M melanoma = test system: MALME-3M melanoma
MDA-N = test system: MDA-N
SK-OV-3 ovarian = test system: SK-OV-3 ovarian
NCI-H522 lung = test system: NCI-H522 lung
SK-MEL-5 melanoma = test system: SK-MEL-5 melanoma
KM12 colon = test system: KM12 colon
HL-60(TB) leukemia = test system: HL-60(TB) leukemia
HOP-62 NSCLC = test system: HOP-62 NSCLC
HCT-116 colon = test system: HCT-116 colon
DU-145 prostate = test system: DU-145 prostate
OVCAR-8 ovarian = test system: OVCAR-8 ovarian
HCC-2998 colon = test system: HCC-2998 colon
HT29 colon = test system: HT29 colon
A549 NSCLC = test system: A549 NSCLC
UACC-62 melanoma = test system: UACC-62 melanoma
RPMI-8226 leukemia = test system: RPMI-8226 leukemia
MOLT-4 leukemia = test system: MOLT-4 leukemia
SF-268 CNS = test system: SF-268 CNS
NCI-H23 lung = test system: NCI-H23 lung
SF-295 CNS = test system: SF-295 CNS
MDA-MB-231 breast = test system: MDA-MB-231 breast
COLO 205 colon = test system: COLO 205 colon
LOX IMVI melanoma = test system: LOX IMVI melanoma
NCI/ADR-RES ovarian = test system: NCI/ADR-RES ovarian
EKVX NSCLC = test system: EKVX NSCLC
HOP-92 NSCLC = test system: HOP-92 NSCLC
SN12C renal = test system: SN12C renal
NCI-H226 lung = test system: NCI-H226 lung
A498 renal = test system: A498 renal
OVCAR-5 ovarian = test system: OVCAR-5 ovarian
SF-539 CNS = test system: SF-539 CNS
SNB-75 CNS = test system: SNB-75 CNS
HCT-15 colon = test system: HCT-15 colon
MDA-MB-435 = test system: MDA-MB-435
CAKI-1 renal = test system: CAKI-1 renal
SW-620 colon = test system: SW-620 colon
SK-MEL-28 melanoma = test system: SK-MEL-28 melanoma
CCRF-CEM leukemia = test system: CCRF-CEM leukemia
OVCAR-4 ovarian = test system: OVCAR-4 ovarian
PC-3 prostate = test system: PC-3 prostate
M14 melanoma = test system: M14 melanoma

CC(C)=CCc1c(O)c(CC2=C(O)C(C)=C(O)C(CC=C(C)C)(C(=O)C(C)C)C2=O)c(O)c(C(=O)C(C)C)c1O (configuration not stated)
TGI (UO-31 renal): 19.5 µM
TGI (HS 578T breast): 21.6 µM
TGI (SNB-19 CNS): > 31 µM
TGI (K-562 leukemia): 34 µM
TGI (786-0 renal): > 35.3 µM
TGI (BT-549 breast): 36.9 µM
TGI (ACHN renal): > 40.5 µM
TGI (MCF7 breast): > 45.3 µM
TGI (UACC-257 melanoma): 28.8 µM
TGI (TK-10 renal): > 47.7 µM
TGI (IGROV1 ovarian): 31.3 µM
TGI (RXF 393 renal): > 47.7 µM
TGI (T-47D breast): 33.7 µM
TGI (SK-MEL-2 melanoma): > 31.4 µM
TGI (OVCAR-3 ovarian): > 38.1 µM
TGI (U251 CNS): > 40.2 µM
TGI (MALME-3M melanoma): 17.9 µM
TGI (MDA-N): 38.1 µM
TGI (SK-OV-3 ovarian): > 47.7 µM
TGI (NCI-H522 lung): 21.5 µM
TGI (SK-MEL-5 melanoma): 18.3 µM
TGI (KM12 colon): 17.5 µM
TGI (HL-60(TB) leukemia): > 47.7 µM
TGI (HOP-62 NSCLC): > 29.5 µM
TGI (HCT-116 colon): 19.8 µM
TGI (DU-145 prostate): > 47.7 µM
TGI (OVCAR-8 ovarian): 31.2 µM
TGI (HCC-2998 colon): > 38.9 µM
TGI (HT29 colon): 12.6 µM
TGI (A549 NSCLC): > 47.7 µM
TGI (UACC-62 melanoma): 22.4 µM
TGI (RPMI-8226 leukemia): > 31.2 µM
TGI (MOLT-4 leukemia): 11.4 µM
TGI (SF-268 CNS): > 47.7 µM
TGI (NCI-H23 lung): 25.4 µM
TGI (SF-295 CNS): > 38.1 µM
TGI (MDA-MB-231 breast): 46.5 µM
TGI (COLO 205 colon): > 47.7 µM
TGI (LOX IMVI melanoma): > 28.1 µM
TGI (NCI/ADR-RES ovarian): 27.5 µM
TGI (EKVX NSCLC): > 44.6 µM
TGI (HOP-92 NSCLC): 25.5 µM
TGI (SN12C renal): > 47.7 µM
TGI (NCI-H226 lung): 21.8 µM
TGI (A498 renal): > 38.9 µM
TGI (OVCAR-5 ovarian): > 42.5 µM
TGI (SF-539 CNS): > 47.7 µM
TGI (SNB-75 CNS): > 47.7 µM
TGI (HCT-15 colon): > 47.7 µM
TGI (MDA-MB-435): > 38.4 µM
TGI (CAKI-1 renal): > 47.7 µM
TGI (SW-620 colon): > 44.7 µM
TGI (SK-MEL-28 melanoma): > 31.7 µM
TGI (CCRF-CEM leukemia): > 15.1 µM
TGI (OVCAR-4 ovarian): > 47.7 µM
TGI (PC-3 prostate): > 47.7 µM
TGI (M14 melanoma): > 36.6 µM
